How the values were obtained:
[1] = test system: rats persistently choosing the left side of the labyrinth; assay: Lateralization of free behaviour in the T-shaped labyrinth; format: in vivo, rat; conditions: for Number of runs to the right, Series I / Number of runs to the right, Series II / Number of runs to the right, Series III: 20 animals
Protocol: Also studied was the change of lateralization of free behaviour of rats in the T-shaped labyrinth. In the experiment rats of both sexes with a mass of 180-230 g were used. Preliminary experiments were carried out on 120 animals, then a group of 40 animals was chosen which during 20 days selected the left corridor in the first attempt of running through the labyrinth.
The data on the capacity of the preparation according to the present invention to enhance the domination of one (left) brain hemisphere have been supported in behaviour experiments on rats where the change in lateralization of a free behaviour of rats in a T-shaped labyrinth was studied.

[2] = test system: rabbit's brain hemispheres; assay: Amplitude of induced potential in brain hemispheres (acoustic irritation); format: in vivo; conditions: rabbits
Protocol: (§1) In the third series of experiments the effect of the preparation according to the present invention on the functional brain asymmetry was studied. The experiments were carried out on rabbits with electrodes implanted in the brain. The electrodes under nembutal narcosis (40 mg/kg) were implanted strictly symmetrically into the bearing zone of the temporal cortex of the right and left hemispheres on its lateral surface, whereas the indifferent electrode was secured to the nasal bones of a rabbit's skull. The acoustic irritation was applied through earphones. As the acoustic irritation a sound click caused by a square-shaped pulse from an electronic stimulator with a frequency of 0.1-0.2 Hz was used; the click intensity was adjusted within the range of from 5 to 80 Db. The amplification of the taken-off biopotentials was effected on an electroencephalograph; the induced potentials were obtained by means of an analyzer. 100 experiments on 20 animals were thus conducted; the interval between experiments on one animal was 7 days. The amplitude and form of the induced potential were determined. The asymmetry factor (Kas) was calculated by the formula: [formula] Ar --amplitude of the induced potential of the […] hemisphere, μV;
(§2) A1 --amplitude of the induced potential of the left hemisphere.
(§3) The test preparations were administered hypodermally in the form of 0.5-1.5% aqueous solutions 20 minutes before the beginning of the measurements.

[3] = test system: learning ability of rats preliminarily sorted out for poor learning ability; assay: Active avoidance learning in a shuttle chamber, rats sorted out for poor learning ability; format: in vivo, rat; conditions: poorly learning rats
Source text: (§4) In these experiments rats are taught to avoid an electric shock by escaping into a next chamber communicating with the first chamber by means of a special opening--a door. An electric current is applied to the chamber door consisting of metal plates. A conditional irritator is a light signal together with a sound click. The learning series consisted of 50 combinations. The number of combinations necessary for the animal's learning to escape into another chamber in response to the conditional signal was determined. Five correct responses out of 6 where regarded as the proof of stability of the acquired knowledge and were denoted as a "learning criterion". After 7 days the educational procedure was repeated, and again the number of combinations necessary to acquire the "learning criterion" was determined. In the case of difference between the first and second readings the percentage of retention of the acquired knowledge was calculated.
(§5) In this experiment the effect of the preparation according to the present invention and prior art preparations was separately evaluated for the purpose of comparison on well-learning and on specially selected poorly learning rats. […] To the poorly learning rats the animals were assigned which reached no "learning criterion" in the teaching series of 50 combinations, or, in other words, a stable knowledge of active avoidance was not worked out in them. […] The preparation according to the present invention and the prior art comparison preparations were administered before the first teaching series or thereafter.
(§6) Also studied were the effects produced upon a single and repeated administration of the preparation according to the present invention for 14 days.

mice = assay: Acute toxicity, mice; format: in vivo, mouse; conditions: single intraperitoneal
Protocol: The preparation according to the present invention was also tested for acute and chronic toxicity.

rabbits = assay: Chronic toxicity, rabbits; format: in vivo, rabbit; conditions: hypodermal, 2 months
Source text: (§7) The chronic toxicity of the preparation was studied on three species of animals (rats, dogs, rabbits). In chronic tests on the above-mentioned animals the effect of a long-time hypodermal administration of the preparation according to the present invention on the general state and mass of animals, hemogram, cardio-vascular system, breathing central nervous system, functional state of kidneys, liver, thyroid gland was studied. […] The doses of the preparation employed in the experiments surpassed the required dose for a human being (per kilogram of bodymass) by 5-10 times.

[4] = Allergenic activity tests
Protocol: Allergenic activity tests were also carried out for the preparation according to the present invention.

[5] = test system: learning ability of rats in a shuttle chamber; assay: Active avoidance learning in a shuttle chamber, rats; format: in vivo, rat
Source text: as §4, §5, §6

patients = assay: Tolerability and side effects in patients; format: in vivo, human
Solubility = format: physicochemical
rats = assay: Chronic toxicity, rats; format: in vivo, rat; conditions: hypodermal, 3 months
Source text: as §7

[6] = test system: cerebral cortex of rabbits; assay: Asymmetry factor by induced potential in the hearing zone of the cerebral cortex; format: in vivo, rabbit
Protocol: as §1, §2, §3

[7] = rats, hypodermally 1 mg/kg 14 days
[8] = rats, hypodermally 5 mg/kg 14 days
[9] = rats, hypodermally 5 mg/kg after teaching

SMILES: Cl.Nc1c2c(nc3c1CCC3)CCCC2.O [preparation of the invention, 9-amino-2,3,5,6,7,8-hexahydro-1H-cyclopenta(b)quinoline monohydrate hydrochloride]
- choice of the right side of the labyrinth (in words) [1]: statistically markedly increased
- Number of runs to the right, Series I ([1]; hypodermally 5 mg/kg): 10
- Number of runs to the right, Series II ([1]; hypodermally 5 mg/kg): 12
- Number of runs to the right, Series III ([1]; hypodermally 5 mg/kg): 14
- Number of runs to the right, Series I ([1]; hypodermally 10 mg/kg): 9
- Number of runs to the right, Series II ([1]; hypodermally 10 mg/kg): 14
- Number of runs to the right, Series III ([1]; hypodermally 10 mg/kg): 15
- amplitude of induced potentials (in words) [2]: increased greater in the left hemisphere
- Change of amplitude of induced potential, % of the control, left hemisphere ([2]; hypodermally 5 mg/kg): 270%
- Change of amplitude of induced potential, % of the control, right hemisphere ([2]; hypodermally 5 mg/kg): 200%
- Mean value of amplitude of induced potential, % ([2]; hypodermally 5 mg/kg): 235%
- % of knowledge retention ([3]; hypodermally 5 mg/kg): 64.3%
- Number of combinations till appearance of "learning criterion", I teaching ([3]; hypodermally 5 mg/kg): 21 ± 2.7
- Number of combinations till appearance of "learning criterion", II-checking of retention of knowledge ([3]; hypodermally 5 mg/kg): 7.5 ± 0.9
- Number of untaught animals in the group ([3]; hypodermally 5 mg/kg): 3/20
- % of knowledge retention ([3]; hypodermally I mg/kg): 57.5%
- Number of combinations till appearance of "learning criterion", I teaching ([3]; hypodermally I mg/kg): 24 ± 2.5
- Number of combinations till appearance of "learning criterion", II-checking of retention of knowledge ([3]; hypodermally I mg/kg): 10.2 ± 1.5
- Number of untaught animals in the group ([3]; hypodermally I mg/kg): 6/20
- LD50 (mice): 44 mg/kg
- chronic toxicity (rabbits): no toxic effect
- allergenic effect [4]: no allergenic effect
- learning capacity (in words) ([5]; rats, 1, 5 and 10 mg/kg): stimulate the learning capacity of rats
- activity on learning versus comparison preparations (in words) ([5]; rats, Tables 1 and 2): substantially more active than 4-aminopyridine, physostigmine, pyracetam and lysyl-vasopressin
- Number of combinations to reach the "learning criterion" in II teaching series (after 7 days) ([5]; rats, hypodermally 1 mg/kg): 4.2 + 0.8
- Number of combinations to reach the "learning criterion" in the I teaching series ([5]; rats, hypodermally 1 mg/kg): 14.2 + 1.2
- Number of non-taught animals in the group ([5]; rats, hypodermally 1 mg/kg): 3/20
- Percentage knowledge retention ([5]; rats, hypodermally 1 mg/kg): 70.4%
- Number of combinations to reach the "learning criterion" in II teaching series (after 7 days) [5, 7]: 3.9 ± 0.8
- Number of combinations to reach the "learning criterion" in the I teaching series [5, 7]: 14.7 ± 1.9
- Number of non-taught animals in the group [5, 7]: 2/20
- Percentage knowledge retention [5, 7]: 72.7%
- Number of combinations to reach the "learning criterion" in II teaching series (after 7 days) ([5]; rats, hypodermally 5 mg/kg): 2.6 + 0.3
- Number of combinations to reach the "learning criterion" in the I teaching series ([5]; rats, hypodermally 5 mg/kg): 11.5 + 0.9
- Number of non-taught animals in the group ([5]; rats, hypodermally 5 mg/kg): 1/20
- Percentage knowledge retention ([5]; rats, hypodermally 5 mg/kg): 77.4%
- Number of combinations to reach the "learning criterion" in II teaching series (after 7 days) [5, 8]: 4.4 ± 0.5
- Number of combinations to reach the "learning criterion" in the I teaching series [5, 8]: 14.8 ± 2.0
- Number of non-taught animals in the group [5, 8]: 2/20
- Percentage knowledge retention [5, 8]: 69.3%
- Number of combinations to reach the "learning criterion" in II teaching series (after 7 days) [5, 9]: 7.2 ± 0.8
- Number of combinations to reach the "learning criterion" in the I teaching series [5, 9]: 19.0 ± 1.2
- Number of non-taught animals in the group [5, 9]: 1/20
- Percentage knowledge retention [5, 9]: 60%
- Number of combinations to reach the "learning criterion" in II teaching series (after 7 days) ([5]; rats, hypodermally 10 mg/kg): 3.0 + 0.5
- Number of combinations to reach the "learning criterion" in the I teaching series ([5]; rats, hypodermally 10 mg/kg): 12.9 + 0.8
- Number of non-taught animals in the group ([5]; rats, hypodermally 10 mg/kg): 0/15
- Percentage knowledge retention ([5]; rats, hypodermally 10 mg/kg): 76.7%
- Number of combinations to reach the "learning criterion" in II teaching series (after 7 days) ([5]; rats, per os 5 mg/kg): 6.0 + 0.5
- Number of combinations to reach the "learning criterion" in the I teaching series ([5]; rats, per os 5 mg/kg): 12.8 + 1.7
- Number of non-taught animals in the group ([5]; rats, per os 5 mg/kg): 2/20
- Percentage knowledge retention ([5]; rats, per os 5 mg/kg): 60%
- stimulating effect as compared to single-time administration (in words) ([5]; rats, two-weeks of administration): stimulating effect is also enhanced
- side effects, rare cases (patients; eliminated by lowering dose or temporary suspension): reduction or elevation of arterial pressure and bradycardia
- tolerability (patients; patients): well-bearable by patients
- side effects (patients; signs of stimulation of m-cholinergic systems): nausea, diarrhea, less frequently--vomition
- solubility in 95% ethanol (Solubility; 95% ethanol): less soluble in a 95% ethanol
- solubility in acetone (Solubility; acetone): substantially insoluble
- solubility in chloroform (Solubility; chloroform): substantially insoluble
- solubility in diluted solutions of acids (Solubility; diluted solutions of acids): readily soluble in diluted solutions of acids
- solubility in ether (Solubility; ether): substantially insoluble
- solubility in water (Solubility; water): well soluble in water
- chronic toxicity (rats): no toxic effect
- asymmetry factor (in words) [6]: the asymmetry factor is also increased

Reference: patent publication US4735953A, “Pharmaceutical preparation for learning stimulation and memory improvement” (priority 1986, dated 1988)
